This is an account of results in US9227971B2, “Pyrazolo[1,5-a]pyrimidine compounds as mTOR inhibitors” (Merck Sharp & Dohme Corp., priority 2010, dated 2016).

Where two headings read alike, the source gives them in different places.

Experiment [1] deals with phosphorylated AKT Ser473 (pAKT S473), mTORC2 activity, PC3 cells. The experiment is described as follows: mTOR target engagement assay, immunofluorescent cell-based, pAKT S473 readout (mTORC2 activity). Conditions: Homo sapiens. The procedure: (§1) The target engagement of mTOR kinase inhibitors was evaluated using an immunofluorescent cell-based assay. In this assay, inhibition of mTORC1 activity was measured by the reduction in the level of phosphorylated 4E-BP1^[…] (p4E-BP1 Thr37/46), and inhibition of mTORC2 activity was measured by the reduction of phosphorylated AKT^Ser473 (pAKT S473).
PC3 cells (prostate tumor cell-line that contains a mutation in the tumor suppressor PTEN, that promotes the phosphorylation and activation of AKT and 4E-BP1) were used in the immunofluorescence assay. […] PC3 cells were then treated with 40 μl of the serially diluted test compounds (in 5% fetal bovine serum, F12 medium containing 0.25% DMSO) for ninety minutes at 37° C. The test compound solution was removed, and the plates were washed gently two times with 25 μl phosphate buffered saline (PBS). […] 5% Goat serum in PBS/0.3% Triton was used to block non-specific binding (60 minutes).
The primary antibodies targeting pAKT S473 and p4E-BP1 Thr37/46 were diluted into PBS/0.3% Triton and incubated with the cells overnight at 4° C. […] Plates were washed three times with PBS/0.1% Tween 20 before adding the secondary antibody at a 1:200 dilution.
Finally, the plates were washed three times with PBS/0.1% Tween 20 and the fluorescent intensity was read using an Analyst HT from Molecular Devices.

Experiment [2] deals with phosphorylated 4E-BP1 Thr37/46 (p4E-BP1 Thr37/46), mTORC1 activity, PC3 cells. Briefly: mTOR target engagement assay, immunofluorescent cell-based, p4E-BP1 Thr37/46 readout (mTORC1 activity). Conditions: Homo sapiens, read-out: p4E-BP1 Thr37/46 IC50. The procedure: as §1
PC3 cells (prostate tumor cell-line that contains a mutation in the tumor suppressor PTEN, that promotes the phosphorylation and activation of AKT and 4E-BP1) were used in the immunofluorescence assay. PC3 cells were seeded on 384 well plates (black clear bottom, Matrix #4332) overnight. PC3 cells were then treated with 40 μl of the serially diluted test compounds (in 5% fetal bovine serum, F12 medium containing 0.25% DMSO) for ninety minutes at 37° C. The test compound solution was removed, and the plates were washed gently two times with 25 μl phosphate buffered saline (PBS). The cells were fixed by adding 25 μl of Prefer reagent (from Anatech LTD, Cat#414, a glyoxal fixative for fixing proteins within a cell) for sixty minutes followed by three washes with PBS. 5% Goat serum in PBS/0.3% Triton was used to block non-specific binding (60 minutes).
The primary antibodies targeting pAKT S473 and p4E-BP1 Thr37/46 were diluted into PBS/0.3% Triton and incubated with the cells overnight at 4° C. The antibodies targeting pAKTS473 (Cat#4085, Cell signaling) and p4E-BP1 Thr37/46 (Cat#2855, Cell signaling) were used at a 1:100 dilution. Plates were washed three times with PBS/0.1% Tween 20 before adding the secondary antibody at a 1:200 dilution. (goat anti-rabbit containing a fluorescent label, Alexa Fluor 488, Cat#A11008, Invitrogen) in PBS/0.3% Triton for 60 minutes.
Finally, the plates were washed three times with PBS/0.1% Tween 20 and the fluorescent intensity was read using an Analyst HT from Molecular Devices. The fluorescent intensity values from the serially diluted compound treatment group were analyzed using the Xlfit 4 program ([…]) (Formula 205: Y=Bottom+(Top-Bottom)/(1+(IC50/X)^Hillslope) to generate the IC50 value. Where Top is the maximum signal without Compound (+DMSO only) and Bottom represents maximum inhibition. Y is the fluorescence at some compound concentration. The control used to determine the fluorescent intensities for 100% pAKT S473 or 100% phosphorylated p4E-BP1 Thr37/46 were measured from untreated wells that contained only DMSO, instead of test compound.

Setting [3] is: PC-3, PC3 cells, compound treatment ninety minutes at 37° C.

For the compound `CS(=O)(=O)c1c([C@@H]2C[C@H]3CC[C@@H](C2)N3C(=O)c2nnc[nH]2)nc2c(-c3ccc(-c4ccccn4)nc3)cnn2c1N` [Compound 3.102, ((1R,3s,5S)-3-(3-(2,2′-bipyridin-5-yl)-7-amino-6-(methylsulfonyl)pyrazolo[1,5-a]pyrimidin-5-yl)-8-azabicyclo[3.2.1]octan-8-yl)(4H-1,2,4-triazol-3-yl)methanone], the IC50 in experiment [1] (PC-3, Table 3-1, PC3 cells) was 1 to 100 nM; in experiment [2] (PC-3, Table 3-1, PC3 cells), 1 to 100 nM.

`CC(=O)Nc1nnc(C(=O)N2[C@@H]3CC[C@H]2C[C@H](c2nc4c(-c5ccc(-c6ccccc6)nc5)cnn4c(N)c2S(C)(=O)=O)C3)[nH]1` [Compound 3.89]: the IC50 in experiment [1] (PC-3, Table 3-1, PC3 cells) lay in the range of 100 to 1000 nM; in experiment [2] (PC-3, Table 3-1, PC3 cells), 100 to 1000 nM.

In experiment [1] (PC-3, Table 3-1, PC3 cells), `C[C@@H](O)C(=O)N1[C@@H]2CC[C@H]1C[C@H](c1nc3c(-c4ccc(-c5ccc(F)cc5)nc4)cnn3c(N)c1S(C)(=O)=O)C2` [Compound 3.122, (R)-1-((1R,3S,5S)-3-(7-amino-3-(6-(4-fluorophenyl)pyridin-3-yl)-6-(methylsulfonyl)pyrazolo[1,5-a]pyrimidin-5-yl)-8-azabicyclo[3.2.1]octan-8-yl)-2-hydroxypropan-1-one] registered an IC50 of 100 to 1000 nM.

Turning to `CC(=O)c1c([C@@H]2C[C@H]3CC[C@@H](C2)N3C(=O)C(C)(C)O)nc2c(-c3ccc(-c4ccccc4)nc3)cnn2c1N` [Compound 1.1.6, 1-((1R,3s,5S)-3-(6-acetyl-7-amino-3-(6-phenylpyridin-3-yl)pyrazolo[1,5-a]pyrimidin-5-yl)-8-azabicyclo[3.2.1]octan-8-yl)-2-hydroxy-2-methylpropan-1-one], in experiment [1] (setting [3]), the IC50 was in the range of 100 to 1000 nM.

In experiment [1] (PC-3, PC3 cells), `CCOC(=O)Nc1ccc(-c2cnn3c(N)c(C(C)=O)c([C@@H]4C[C@H]5CC[C@@H](C4)N5C(=O)CO)nc23)cn1` [Compound 8.77, ethyl 5-(6-acetyl-7-amino-5-((1R,3s,5S)-8-(2-hydroxyacetyl)-8-azabicyclo[3.2.1]octan-3-yl)pyrazolo[1,5-a]pyrimidin-3-yl)pyridin-2-ylcarbamate] came in with an IC50 of 100 to 1000 nM.

`Nc1c(C2CC2)c([C@@H]2C[C@H]3CC[C@@H](C2)N3C(=O)CO)nc2c(-c3cnc(-c4ncc[nH]4)c(F)c3)cnn12` [Compound 6.29, 1-((1R,3s,5S)-3-(7-amino-6-cyclopropyl-3-(5-fluoro-6-(1H-imidazol-2-yl)pyridin-3-yl)pyrazolo[1,5-a]pyrimidin-5-yl)-8-azabicyclo[3.2.1]octan-8-yl)-2-hydroxyethanone]: in experiment [1] (PC-3, Table 6-1, PC3 cells), the IC50 lay in the range of 100 to 1000 nM.

For the compound `COc1cc(-c2ccc(-c3cnn4c(N)c(C5CC5)c([C@@H]5C[C@H]6CC[C@@H](C5)N6C(=O)c5nnc[nH]5)nc34)cn2)ccc1F` [Compound 4.11, ((1R,3a,5S)-3-(7-amino-6-cyclopropyl-3-(6-(4-fluoro-3-methoxyphenyl)pyridin-3-yl)pyrazolo[1,5-a]pyrimidin-5-yl)-8-azabicyclo[3.2.1]octan-8-yl)(4H-1,2,4-triazol-3-yl)methanone], in experiment [2] (setting [3]), the IC50 is greater than 10000 nM.

On to `CC(=O)c1c([C@@H]2C[C@H]3CC[C@@H](C2)N3C(=O)c2cnn[nH]2)nc2c(-c3ccc(C4(O)CCC4)nc3)cnn2c1N` [Compound 7.19, 1-(5-((1R,3s,5S)-8-(1H-1,2,3-triazole-5-carbonyl)-8-azabicyclo[3.2.1]octan-3-yl)-7-amino-3-(6-(1-hydroxycyclobutyl)pyridin-3-yl)pyrazolo[1,5-a]pyrimidin-6-yl)ethanone], for which, in experiment [1] (setting [3]), the IC50 is 100 to 1000 nM.

In experiment [1] (PC-3, Table 6-1, PC3 cells), `COCCOCC(=O)N1[C@@H]2CC[C@H]1C[C@H](c1nc3c(-c4ccc(-c5ncc[nH]5)nc4)cnn3c(N)c1C(C)=O)C2` [Compound 6.13, 1-((1R,3s,5S)-3-(3-(6-(1H-imidazol-2-yl)pyridin-3-yl)-6-acetyl-7-aminopyrazolo[1,5-a]pyrimidin-5-yl)-8-azabicyclo[3.2.1]octan-8-yl)-2-(2-methoxyethoxy)ethanone] returned an IC50 of 1 to 100 nM.

Compound `CC(=O)c1c([C@@H]2C[C@H]3CC[C@@H](C2)N3C(=O)C(C)(C)CO)nc2c(-c3ccc(-c4ncc[nH]4)nc3)cnn2c1N` [Compound 6.45, 1-((1R,3s,5S)-3-(3-(6-(1H-imidazol-2-yl)pyridin-3-yl)-6-acetyl-7-aminopyrazolo[1,5-a]pyrimidin-5-yl)-8-azabicyclo[3.2.1]octan-8-yl)-3-hydroxy-2,2-dimethylpropan-1-one] showed an IC50 in experiment [1] (PC-3, Table 6-1, PC3 cells) of 100 to 1000 nM.

`CS(=O)(=O)c1c([C@@H]2C[C@H]3CC[C@@H](C2)N3CC(N)=O)nc2c(-c3ccc(-c4ccccc4)nc3)cnn2c1N` [Compound 8.92, 2-((1R,3s,5S)-3-(7-amino-6-(methylsulfonyl)-3-(6-phenylpyridin-3-yl)pyrazolo[1,5-a]pyrimidin-5-yl)-8-azabicyclo[3.2.1]octan-8-yl)acetamide] returned an IC50 in experiment [1] (PC-3, PC3 cells) of 1000 to 10000 nM.

The compound `CC(=O)c1c([C@@H]2C[C@H]3CC[C@@H](C2)N3C(=O)c2nnc[nH]2)nc2c(-c3cnc(C(N)=O)nc3)cnn2c1N` [Compound 8.97, 5-(5-((1R,3s,5S)-8-(4H-1,2,4-triazole-3-carbonyl)-8-azabicyclo[3.2.1]octan-3-yl)-6-acetyl-7-aminopyrazolo[1,5-a]pyrimidin-3-yl)pyrimidine-2-carboxamide] displayed an IC50 in experiment [1] (PC-3, PC3 cells) of 1000 to 10000 nM.

For `Nc1cc([C@@H]2C[C@H]3CC[C@@H](C2)N3C(=O)c2nnc[nH]2)nc2c(-c3ccc(C4(O)CCC4)nc3)cnn12` [Compound 7.44, ((1R,3s,5S)-3-(7-amino-3-(6-(1-hydroxycyclobutyl)pyridin-3-yl)pyrazolo[1,5-a]pyrimidin-5-yl)-8-azabicyclo[3.2.1]octan-8-yl)(4H-1,2,4-triazol-3-yl)methanone], the IC50 in experiment [2] (PC-3, Table 7-8, PC3 cells) lay within 1000 to 10000 nM.

`CC(=O)c1c([C@@H]2C[C@H]3CC[C@@H](C2)N3C(=O)[C@@H](C)O)nc2c(-c3ccc(-c4ccc(F)cc4)nc3)cnn2c1N` [Compound 1.1.158, (R)-1-((1R,3S,5S)-3-(6-acetyl-7-amino-3-(6-(4-fluorophenyl)pyridin-3-yl)pyrazolo[1,5-a]pyrimidin-5-yl)-8-azabicyclo[3.2.1]octan-8-yl)-2-hydroxypropan-1-one]: the IC50 in experiment [1] (setting [3]) fell in the range of 100 to 1000 nM.

For `CC(=O)c1c(N2CC3CCC(C2)N3C(=O)c2nnc[nH]2)nc2c(-c3ccc(-c4ccccc4)nc3)cnn2c1N` [Compound 8.1, 1-(5-(8-(4H-1,2,4-triazole-3-carbonyl)-3,8-diazabicyclo[3.2.1]octan-3-yl)-7-amino-3-(6-phenylpyridin-3-yl)pyrazolo[1,5-a]pyrimidin-6-yl)ethanone], the IC50 in experiment [1] (PC-3, PC3 cells) lay within 100 to 1000 nM.

For `CC(=O)c1c(N2CC3CCC2CN3C(=O)[C@@H](C)O)nc2c(-c3ccc(-c4ccccc4)nc3)cnn2c1N` (stereo partly drawn) [Compound 8.4, (2R)-1-(5-(6-acetyl-7-amino-3-(6-phenylpyridin-3-yl)pyrazolo[1,5-a]pyrimidin-5-yl)-2,5-diazabicyclo[2.2.2]octan-2-yl)-2-hydroxypropan-1-one], the IC50 in experiment [1] (PC-3, PC3 cells) was 1000 to 10000 nM.

In experiment [1] (setting [3]), `Cc1ccc(-c2cnn3c(N)c(C4CC4)c([C@@H]4C[C@H]5CC[C@@H](C4)N5C(=O)c4nnc[nH]4)nc23)cn1` [Compound 4.16, ((1R,3s,5S)-3-(7-amino-6-cyclopropyl-3-(6-methylpyridin-3-yl)pyrazolo[1,5-a]pyrimidin-5-yl)-8-azabicyclo[3.2.1]octan-8-yl)(4H-1,2,4-triazol-3-yl)methanone] yielded an IC50 of 100 to 1000 nM.
